According to patent US11311609B2, “Regulating chimeric antigen receptors” (DANA-FARBER CANCER INSTITUTE, INC., priority 2017, dated 2022):

Columns and labels:
Format in all cases: cell-based
[1] = target: T1, FKBP* (Homo sapiens, UniProt P62942, F37V); test: Immunoblot of FKBP* degradation in 293FT cells (CRBN-WT or CRBN-/-); details: 293FT CRBN-WT; pretreated two hours with 1 uM Carfilzomib, 0.5 uM MLN4924 or 10 uM Lenalidomide, then 4 hour dFKBP13
T1 construct: HA; expressed in transfected cells; host or cells: 293FT cells (CRBN-WT or CRBN-/-)
Experimental: FIG. 6 is an immunoblot of cells treated with bi-functional molecules described in the present invention. As described in Example 3, 293FT cells (CRBN-WT or CRBN−/−) expressing either HA-tagged FKBP12WT or FKBP* (also referred to as dFKBP12* herein) were treated with indicated concentrations of dFKBP7 for 4 hours.
FIG. 8 is an immunoblot of cells treated with heterobifunctional compounds described in the present invention. Isogenic 293FT cells (CRBN-WT or CRBN−/−) expressing either FKBP12WT or FKBP* were treated with 100 nM of either dFKBP7 or dFKBP13 for 4 hours (Example 5).
FIG. 9 is an immunoblot of cells treated with heterobifunctional compounds described in the present invention. Isogenic 293FT cells (CRBN-WT or CRBN−/−) expressing HA-tagged FKBP* were treated with the indicated dose of dFKBP13 for 4 hours (Example 6).
FIG. 11 is an immunoblot of cells treated with heterobifunctional compounds described in the present invention. 293FT cells (CRBN-WT) expressing FKBP* were pretreated with 1 uM Carfilzomib (proteasome inhibitor), 0.5 uM MLN4924 (neddylation inhibitor), and 10 uM Lenalidomide (CRBN binding ligand) for two hours prior to a 4 hour treatment with dFKBP13 (Example 8). Degradation of HA-tagged FKBP* by dFKBP13 was rescued by the proteasome inhibitor Carfilzomib, establishing a requirement for proteasome function.
The dTAG is predicated on the selectivity of FKBP* specific ligands over endogenous, wild type FKBP. In 293T cells expressing wild type FKBP12 or FKBP*, dFKBP7 induces targeted degradation only in FKBP* expressing cells. An immunoblot of cells treated with bi-functional molecules described in the present invention was performed. 293FT cells (CRBN-WT or CRBN−/−) expressing either HA-tagged FKBP12WT or FKBP* were treated with indicated concentrations of dFKBP7 for 4 hours.
In 293T cells expressing wild type FKBP12 or FKBP*, treatment with dFKBP7 and dFKBP13 induces targeted degradation only in FKBP* expressing cells. Isogenic 293FT cells (CRBN-WT or CRBN−/−) were engineered to express either FKBP12WT or FKBP*. Cells were treated with 100 nM of either dFKBP7 or dFKBP13 for 4 hours before lysates were prepared for western immunoblot analysis.
In an effort to define the optimal concentration of dFKB13 heterobifunctional compounds to induce degradation of FKBP*, degradation was measured upon treatment with increasing concentrations of dFKBP13. Isogenic 293FT cells (CRBN-WT or CRBN−/−) were engineered to expressed HA-tagged FKBP*. Cells were treated with the indicated dose of dFKBP13 for 4 hours before lysates were prepared for western immunoblot analysis.
293FT cells (CRBN-WT) were engineered to express FKBP*. Cells were pretreated with 1 uM Carfilzomib (proteasome inhibitor), 0.5 uM MLN4924 (neddylation inhibitor), and 10 uM Lenalidomide (CRBN binding ligand) for two hours prior to a 4-hour treatment with dFKBP13. Lysates were prepared and western immunoblot analysis performed. Degradation of HA-tagged FKBP* by dFKBP13 was rescued by the proteasome inhibitor Carfilzomib, establishing a requirement for proteasome function.

[2] = system: FKBP*-KRASG12V; test: Immunoblot of FKBP*-KRASG12V degradation in NIH3T3 cells; details: NIH3T3 cells expressing dTAG-KRASG12V; 1 μM, 24 hours
Experimental: (§1) FIG. 19 is an immunoblot of NIH3T3 cells expressing KRASG12V allele fused to FKBP* in the N-terminus or C-terminus. Cells were treated with 500 nM dFKBP7 for the indicated time. Cells were harvested and immunoblotted to measure degradation of FKBP*-KRASG12V and downstream surrogates of KRAS signaling (e.g. pMEK and pAKT).
(§2) Cells were harvested and immunoblotted to measure degradation of FKBP*-KRASG12V and downstream surrogates of KRAS signaling (e.g. pMEK and pAKT).
as §2, §2
Cells were treated with 500 nM dFKBP7 for the indicated time. Cells were harvested and immunoblotted to measure degradation of FKBP*-KRAS and downstream surrogates of KRAS signaling (e.g. pMEK and pAKT).
(§3) Cells were harvested and immunoblotted to measure degradation of FKBP*-KRAS and downstream surrogates of KRAS signaling (e.g. pMEK and pAKT).
as §3
To evaluate the kinetic control of targeted degradation of dTAG-KRAS, dFKBP13 was administered by increased duration. […]

[3] = system: KRAS signaling (pMEK and pAKT); test: Immunoblot of downstream surrogates of KRAS signaling in NIH3T3 cells expressing FKBP*-KRASG12V; details: NIH3T3 cells expressing dTAG-KRASG12V; 1 μM, 24 hours
Experimental: as §1
(§4) FIG. 20 is an immunoblot of NIH3T3 cells expressing FKBP* fused to the N-terminus of KRASG12V treated with 1 uM of the indicated dFKBP heterobifunctional compounds for 24 hours. Cells were harvested and immunoblotted to measure degradation of FKBP*-KRASG12V and downstream surrogates of KRAS signaling (e.g. pMEK and pAKT).
as §4, with “21” for “20”, “with” for “with 1 uM of”, “concentrations of dFKBP13” for “dFKBP heterobifunctional compounds”
FIG. 22 is an immunoblot of NIH3T3 cells expressing FKBP* fused to the N-terminus of KRASG12V treated with 1 uM dFKBP13 for the indicated time. Cells were harvested and immunoblotted to measure degradation of FKBP*-KRASG12V and downstream surrogates of KRAS signaling (e.g. pMEK and pAKT).
Cells were treated with 500 nM dFKBP7 for the indicated time. […]

T1 sequence (P62942 whole entry F37V): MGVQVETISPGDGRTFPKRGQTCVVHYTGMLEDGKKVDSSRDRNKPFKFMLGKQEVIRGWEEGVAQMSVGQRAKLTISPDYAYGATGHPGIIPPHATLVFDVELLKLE

Compound	Effect of pretreatment on dFKBP13-induced degradation of HA-tagged FKBP* [1]	Degradation of FKBP*-KRAS [2]	Inhibition of downstream signaling (pMEK, pAKT) [3]
Nc1cccc2c1CN(C1CCC(=O)NC1=O)C2=O (centres unmarked) [Lenalidomide]	abolished dFKBP13-dependent FKBP* degradation	–	–
NS(=O)(=O)OC[C@@H]1C[C@@H](n2ccc3c(N[C@H]4CCc5ccccc54)ncnc32)C[C@@H]1O [MLN4924]	rescued HA-tagged FKBP*	–	–
CC[C@H](C(=O)N1CCCC[C@H]1C(=O)O[C@H](CCc1ccc(OC)c(OC)c1)c1cccc(OCC(=O)NCCCCCCCCNC(=O)COc2cccc3c2C(=O)N(C2CCC(=O)NC2=O)C3=O)c1)c1cc(OC)c(OC)c(OC)c1 (some centres unmarked) [dFKBP9]	–	potent degradation of FKBP*-KRAS	inhibition of downstream signaling
CC(C)C[C@H](NC(=O)[C@H](CCc1ccccc1)NC(=O)CN1CCOCC1)C(=O)N[C@@H](Cc1ccccc1)C(=O)N[C@@H](CC(C)C)C(=O)[C@@]1(C)CO1 [Carfilzomib]	rescued	–	–
